Measured values: patent US10759826B2, “15β-substituted estrone derivatives as selective inhibitors of 17β-hydroxysteroid-dehydrogenases, method of preparation and use thereof” (USTAV ORGANICKE CHEMIE A BIOCHEMIE AV CR, V.V.I., priority 2016, dated 2020)
Where two headings read alike, the source gives them in different places.

Tests used:
[1] = tested on: K562; assay: MTT cytotoxicity assay, K562; type: cell-based; conditions: Homo sapiens
Text: (§1) Compounds 5, 6, 7, 9, 14 and 15 were used for evaluation of antitumor activity. MTT cytotoxicity assay was used in vitro on cell lines derived from normal tissues and from tumors. Specifically, these were the K562 line (human myeloid leukemia), K562-Tax (human myeloid leukemia resistant to taxol and overexpressing PgP protein for multidrug resistance), CEM (T-lymphoblastic leukemia), CEM-DNR bulk (T-lymphoblastic leukemia resistant doxorubicin, lacking the expression of the target gene for inhibitors of topoisomerase II alpha), A549 line (human lung adenocarcinoma), HCT116p53 wt (human colon cancer), HCT116p53−/− (human colon cancer, mutant p53), U2OS line of human osteosarcoma and two fibroblast lines MRC5 and BJ as examples of non-tumor cells. Expression characteristics, profiles of susceptibility to classical antitumor drugs and methodology of the MTT cytotoxicity assay were repeatedly published (e.g. Noskova et al. Neoplasma 2002, 49, 418; S̆arek et. al. J. Med. Chem. 2003, 46, 25, 5402).

[2] = tested on: CEM; assay: MTT cytotoxicity assay, CEM; type: cell-based; conditions: Homo sapiens, CCRF-CEM
Text: as §1

[3] = tested on: MRCS; assay: MTT cytotoxicity assay, MRC5 fibroblasts; type: cell-based; conditions: Homo sapiens, Fibroblast, non-tumor fibroblasts
Text: as §1

[4] = target: T1, human 17βHSD1 (Homo sapiens, UniProt P14061); assay: 17βHSD inhibition in MCF-7 cells transfected with human 17βHSD1, E1 in supernatant; type: cell-based; design: expressed in transfected cells; host or cells: MCF-7; conditions: 10 μmol·l^−1
T1 sequence (P14061 1-328): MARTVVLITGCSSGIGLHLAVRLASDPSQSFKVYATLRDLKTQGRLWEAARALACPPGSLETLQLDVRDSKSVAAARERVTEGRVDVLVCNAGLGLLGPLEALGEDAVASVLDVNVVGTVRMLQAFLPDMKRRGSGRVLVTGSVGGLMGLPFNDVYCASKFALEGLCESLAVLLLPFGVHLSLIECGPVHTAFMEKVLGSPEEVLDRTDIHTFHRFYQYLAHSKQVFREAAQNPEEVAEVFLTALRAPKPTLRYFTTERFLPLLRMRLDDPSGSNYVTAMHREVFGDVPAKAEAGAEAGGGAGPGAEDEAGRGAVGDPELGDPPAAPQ
Description: (§2) For this experiment, non-cytotoxic concentrations of estrone derivative (10 μmol·l^−1) were used. E1 levels were determined by an immuno-enzymatic assay.

[5] = tested on: A549; assay: MTT cytotoxicity assay, A549; type: cell-based; conditions: Homo sapiens
Text: as §1

[6] = tested on: BJ; assay: MTT cytotoxicity assay, BJ fibroblasts; type: cell-based; conditions: Homo sapiens, non-tumor fibroblasts
Text: as §1

[7] = tested on: K562-Tax; assay: MTT cytotoxicity assay, K562-Tax; type: cell-based; conditions: Homo sapiens
Text: as §1

[8] = target: T2, human 17βHSD type 1 (Homo sapiens, UniProt P14061); assay: Inhibition of recombinant 17βHSD type 1, tritium-labeled substrate conversion; type: biochemical; conditions: for inhibition at 0.1 µM: 0.1 μmol · l^−1 test substance; for inhibition at 0.1 µM / inhibition at 1 µM: read-out: % of inhibition of human 17βHSD1; for inhibition at 1 µM: 1 μmol · l^−1 test substance; for IC50: read-out: 17βHSD1 IC50
T2 construct: made in house; expressing system suspended in buffer, not purified
T2 sequence (P14061 1-328): T1 sequence (P14061 1-328)
Description: (§3) The inhibitory activity of the test substances was determined for individual isoenzymes from the 17βHSD family, specifically these were the types 1, 2, 3, 4, 5 and 7. Escherichia coli and mammalian cells expression systems were used for recombinant expression of individual isozymes of human 17βHSD. Only in the case of 17HSD5 the enzyme was partially purified and supernatant obtained by centrifugation of the bacterial lysate was used for testing. Systems expressing specific 17βHSD type were suspended in a reaction buffer and incubated with tritium-labeled substrates and respective cofactors at 37° C. in two parallel tests: the control arrangement (DMSO without the inhibitor) and the test arrangement (DMSO with the inhibitor). DMSO serves as a negative control in this case. After 20-30% of the substrate was converted by the activity of the enzyme to the product in a control test, both tests were terminated. Substrate and product from the test arrangement were isolated by SPE (solid phase extraction), and then separated by reverse phase HPLC. Substrate conversion was determined by integration of the signals of the substrate and product, and was expressed in %. For the purposes of the subsequent calculation of enzyme inhibition, the conversion of the control test was designated as 0% inhibition. All tests were performed in triplicates. IC50 values were subsequently determined by a standard method using the “One Ligand Binding” model of SigmaPlot kinetics module (Schustera et. al. J. Ster. Biochem. Mol. Biol. 2011, 125, 148; Möller et. al. Biioorg. Med. Chem. Lett. 2009, 19, 6740; Möller et. al. PLoS One, 2010, 5, 6, e10969).

[9] = target: T3, human 17βHSD type 5 (Homo sapiens, UniProt P42330); assay: Inhibition of recombinant 17βHSD type 5, tritium-labeled substrate conversion; type: biochemical; conditions: 1 μmol · l^−1 test substance
T3 construct: made in house; host or cells: bacteria (Escherichia coli); supernatant of the lysate
T3 sequence (P42330 1-323): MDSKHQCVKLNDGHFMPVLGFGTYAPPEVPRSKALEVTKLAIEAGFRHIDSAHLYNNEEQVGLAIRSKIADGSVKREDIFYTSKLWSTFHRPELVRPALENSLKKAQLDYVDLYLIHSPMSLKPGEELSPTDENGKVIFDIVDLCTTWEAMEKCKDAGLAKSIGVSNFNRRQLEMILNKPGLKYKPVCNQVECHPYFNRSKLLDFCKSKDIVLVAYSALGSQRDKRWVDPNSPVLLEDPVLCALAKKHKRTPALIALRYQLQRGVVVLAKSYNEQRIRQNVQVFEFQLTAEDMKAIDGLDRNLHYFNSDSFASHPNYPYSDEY
Description: as §3

[10] = target: T1, human 17βHSD1; assay: 17βHSD inhibition in CHO cells transfected with human 17βHSD1, E1 in supernatant; type: cell-based; design: expressed in transfected cells; conditions: 10 μmol·l^−1
Description: as §2

[11] = tested on: U2OS; assay: MTT cytotoxicity assay, U2OS; type: cell-based; conditions: Homo sapiens
Text: as §1

[12] = tested on: HCT116p53-/-; assay: MTT cytotoxicity assay, HCT116p53-/-; type: cell-based; conditions: Homo sapiens
Text: as §1

[13] = tested on: HCT116p53 wt; assay: MTT cytotoxicity assay, HCT116p53 wt; type: cell-based; conditions: Homo sapiens
Text: as §1

[14] = tested on: CEM-DNR-bulk; assay: MTT cytotoxicity assay, CEM-DNR-bulk; type: cell-based
Text: as §1

[15] = tested on: U2OS cells; assay: Cell viability (ATP) of unmodified U2OS cells, parallel to reporter assay; type: cell-based, human
Description: To separate the antagonist activity of test compounds from the cytotoxic effect on U2OS cells (cell line derived from osteosarcoma), an experiment for determination of cell viability was performed in parallel with the reporter assay. Original, genetically unmodified U2OS cells were grown under the same conditions as the reporter cells. These cells were further treated and incubated with the compounds in a completely identical manner and for the same time as cells in the reporter assay. At the end of the experiment, the amount of ATP was determined using BriteLite luciferase homogeneous assay as a measure of cell viability. The data were then processed together with data from the reporter assays.

[16] = target: luciferase (Photinus pyralis, UniProt P08659); assay: Luciferase activity in U2OS cell line constitutively expressing luciferase gene; type: cell-based; conditions: read-out: Luciferase activity IC50
Description: In order to distinguish between the specific, steroid hormone response elements-driven regulation of the luciferase expression and the possible effects of test compounds on the luciferase activity, compounds were tested in parallel experiment on a U2OS cell line constitutively expressing luciferase gene.
Luciferase activity was determined by a commercial kit Britelite plus a luciferase reporter gene assay reagent (Perkin Elmer, USA), 24 h after addition of compounds to cells. The intensity of luminescence was measured on an Envision multimode spectrophotometer (PerkinElmer).

[17] = target: T4, 17βHSD5 (Homo sapiens, UniProt P42330); conditions: cited from earlier work; for IC50: literature
T4 sequence (P42330 1-323): T3 sequence (P42330 1-323)

[18] = target: T5, estrogen receptor α (ERα) (Homo sapiens, UniProt P03372); assay: ERα luciferase reporter assay in U2OS cells; type: cell-based; conditions: testing range 10 μmol·l^−1 to 1 nmol·l^−1
T5 construct: expressed in transfected cells
T5 sequence (P03372 1-595): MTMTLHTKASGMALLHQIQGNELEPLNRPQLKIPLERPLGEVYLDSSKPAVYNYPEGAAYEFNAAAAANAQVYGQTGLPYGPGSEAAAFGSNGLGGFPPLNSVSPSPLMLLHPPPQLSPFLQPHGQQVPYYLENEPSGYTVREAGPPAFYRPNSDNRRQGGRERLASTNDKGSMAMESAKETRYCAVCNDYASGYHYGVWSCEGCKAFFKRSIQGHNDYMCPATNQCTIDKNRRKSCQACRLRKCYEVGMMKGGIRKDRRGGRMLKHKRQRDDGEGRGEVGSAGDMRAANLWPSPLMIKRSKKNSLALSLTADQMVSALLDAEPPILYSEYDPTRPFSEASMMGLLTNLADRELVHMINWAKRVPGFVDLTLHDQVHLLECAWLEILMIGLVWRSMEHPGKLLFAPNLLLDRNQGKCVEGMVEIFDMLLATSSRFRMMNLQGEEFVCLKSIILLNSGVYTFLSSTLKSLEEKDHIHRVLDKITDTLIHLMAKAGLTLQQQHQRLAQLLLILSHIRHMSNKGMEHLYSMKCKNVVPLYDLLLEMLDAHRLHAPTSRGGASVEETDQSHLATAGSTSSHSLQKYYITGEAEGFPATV

Molecule | IC50 [1] [µM] | IC50 [2] [µM] | IC50 [3] [µM] | E1 in supernatant, MCF-7 ([4]; 8 hr.) [pg/mL] | E1 in supernatant, MCF-7 ([4]; 24 hr.) [pg/mL] | IC50 [5] [µM] | IC50 [6] [µM] | IC50 [7] [µM] | inhibition at 0.1 µM [8] [%] | inhibition at 1 µM [8] [%] | IC50 [8] [nM] | % of inhibition of human 17βHSD5 [9] [%] | E1 in supernatant, CHO ([10]; 8 hr.) [pg/mL] | E1 in supernatant, CHO ([10]; 24 hr.) [pg/mL] | IC50 [11] [µM] | IC50 [12] [µM] | melting point [°C] | IC50 [13] [µM] | IC50 [14] [µM] | other results
C[C@]12CC[C@@H]3c4ccc(O)cc4CC[C@H]3[C@@H]1[C@H](CCc1ccc(Cl)cc1)CC2=O [Compound 6, 15β-(4-Chlorophenethyl)-3-hydroxy-estra-1,3,5(10)-trien-17-one] | 26.9 | 16.3 | 21 | 4251 | 3323 | 35.8 | 28.8 | 13.2 | 90 | 97 | 9 | 90 | 4137 | 1804 | 27.9 | 30.8 | 168 | 29.3 | 24.6 | 
CC#C[C@]1(O)CC[C@H]2[C@@H]3CCC4=CC(=O)CCC4=C3[C@@H](c3ccc(N(C)C)cc3)C[C@@]21C [RU486, reference compound] |  |  |  |  |  |  |  |  |  |  |  |  |  |  |  |  |  |  |  | IC50 ([15]; Homo sapiens): 47.7 µM; IC50 [16]: 17.9 µM
Cc1ccc(CC[C@@H]2CC(=O)[C@@]3(C)CC[C@@H]4c5ccc(O)cc5CC[C@H]4[C@H]23)cc1 [Compound 15, 3-Hydroxy-15β-(4-methylphenethyl)-estra-1,3,5(10)-trien-17-one] | 23.8 | 21.7 | 19.6 | 719 | 948 | 28.2 | 27.9 | 13.8 | 87 | 100 | 8 | 86 | 750 | 554 | 28.9 | 29.4 | 159 | 28.3 | 24.1 | 
C[C@]12CC[C@@H]3c4ccc(O)cc4CC[C@H]3[C@@H]1[C@H](CCc1ccc(F)cc1)CC2=O [Compound 5, 15β-(4-Fluorophenethyl)-3-hydroxy-estra-1,3,5(10)-trien-17-one] | 25.2 | 25.2 | 18.4 | 3373 | 2236 | 35.8 | 24.3 | 19.3 | 72 | 92 | 55 | 70 | 3194 | 1576 | 30.4 | 30.5 | 164 | 29.2 | 28.2 | 
4-hydroxytamoxifen [Compound 4-OHT, reference compound] |  |  |  |  |  |  |  |  |  |  |  |  |  |  |  |  |  |  |  | IC50 [15]: 12 µM; IC50 [16]: 10.2 µM
3-deoxyestradiol with C-17-dimethyl-spiro-δ-lactone |  |  |  |  |  |  |  |  |  |  |  |  |  |  |  |  |  |  |  | IC50 [17]: 2.9 nM
CC1(C)CCC2(CCC3C4CCc5cc(C(N)=O)ccc5C4CCC32C)OC1=O [EM1404, 3-carboxamido-1,3,5-(10)-estratrien-17(R)-spiro-2-(5,5-dimethyl-6-oxo)tetra-hydro-pyran] |  |  |  |  |  |  |  |  |  |  |  |  |  |  |  |  |  |  |  | Ki ([17]; Qiu et al. 2007, WO9946279): 6.9 nM; IC50 [17]: 3.2 nM
COC(=O)c1ccc(CC[C@@H]2CC(=O)[C@@]3(C)CC[C@@H]4c5ccc(O)cc5CC[C@H]4[C@H]23)cc1 [Compound 7, Methyl 4-(2-(3-hydroxy-estra-1,3,5(10)-trien-17-on-15β-yl)ethyl)benzoate] | > 50 | 25.6 | > 50 | 1921 | 1839 | > 50 | > 50 | 12.5 | 84 | 99 | 16 | 63 | 2101 | 1476 | > 50 | > 50 | 139 | > 50 | 32.8 | ER antagonism in words [18]: ER antagonist
